Assay type in all cases: functional
Test [1] relates to Enterococcus faecalis. Briefly: Antimicrobial activity against vancomycin-resistant Enterococcus faecalis ATCC 51575 by CLSI protocol based broth microdilution method. In general terms: Dilution methods test growth across graded concentrations, often in twofold steps.
Test [2] relates to Enterococcus faecalis. Briefly: Antimicrobial activity against vancomycin-sensitive Enterococcus faecalis ATCC 19433 by CLSI protocol based broth microdilution method.
Test [3] has as its system Staphylococcus aureus. Put plainly: Antimicrobial activity against methicillin-sensitive Staphylococcus aureus 8325-4 by CLSI protocol based broth microdilution method.
Test [4] relates to Staphylococcus aureus. Briefly: Antimicrobial activity against methicillin-resistant Staphylococcus aureus ATCC 33591 by CLSI protocol based broth microdilution method.

In brackets after ≈: the same amount, converted by molar mass.

Take `COc1cc2c(ccc3c4ccc(OC)c(OC)c4c[n+](C)c23)c(-c2ccc(N(C)C)cc2)c1OC.[Cl-]`: the MIC in the test with Enterococcus faecalis [1] came to 8 µg/mL; in the test on Enterococcus faecalis [2] it was 8 µg/mL; with Staphylococcus aureus [3], 1 µg/mL; against Staphylococcus aureus [4] it was 1 µg/mL.

For `COc1cc2c(-c3ccc(-c4ccccc4)cc3)cc3c4ccc(OC)c(OC)c4c[n+](C)c3c2cc1OC.[Cl-]`, the MIC against Enterococcus faecalis [1] stood at 16 µg/mL; with Enterococcus faecalis [2], 16 µg/mL; in the test on Staphylococcus aureus [3], 0.5 µg/mL; in the test on Staphylococcus aureus [4] it was 0.5 µg/mL.

Consider `COc1cc(-c2c(OC)c(OC)cc3c2ccc2c4ccc(OC)c(OC)c4c[n+](C)c32)cc(OC)c1OC.[Cl-]`, for which the MIC against Enterococcus faecalis [1] is 32 µg/mL; in the test on Enterococcus faecalis [2], 32 µg/mL; in the test with Staphylococcus aureus [3], 4 µg/mL; in the test with Staphylococcus aureus [4], 4 µg/mL.

With `COc1cc2c(ccc3c4ccc(OC)c(OC)c4c[n+](C)c23)c(-c2ccc(-c3ccccc3)cc2)c1OC.[Cl-]`, the MIC with Enterococcus faecalis [1] was determined as 8 µg/mL; against Enterococcus faecalis [2] it was 4 µg/mL; in the test on Staphylococcus aureus [3], 0.5 µg/mL; in the test with Staphylococcus aureus [4] it was 0.5 µg/mL.

Consider `COc1cc2c(ccc3c4ccc(OC)c(OC)c4c[n+](C)c23)c(-c2ccccc2)c1OC.[Cl-]`, for which the MIC with Enterococcus faecalis [1] was determined as 4 µg/mL; in the test with Enterococcus faecalis [2], 4 µg/mL; in the test on Staphylococcus aureus [3], 1 µg/mL; against Staphylococcus aureus [4], 1 µg/mL.

With `CC[C@H]1OC(=O)[C@H](C)[C@@H](O[C@H]2C[C@@](C)(OC)[C@@H](O)[C@H](C)O2)[C@H](C)[C@@H](O[C@@H]2O[C@H](C)C[C@H](N(C)C)[C@H]2O)[C@](C)(O)C[C@@H](C)C(=O)[C@H](C)[C@@H](O)[C@]1(C)O` [ERYTHROMYCIN], the MIC against Enterococcus faecalis [1] was above 64 µg/mL; against Enterococcus faecalis [2], 1 µg/mL (≈ 1.36 µM); in the test on Staphylococcus aureus [3], 0.13 µg/mL (≈ 0.177 µM); against Staphylococcus aureus [4], above 64 µg/mL.

As for `C[n+]1cc2c3c(ccc2c2ccc4cc5c(cc4c21)OCO5)OCO3.[Cl-]` [SANGUINARIUM CHLORIDE], the MIC worked out at 16 µg/mL in the test on Enterococcus faecalis [1], 8 µg/mL against Enterococcus faecalis [2], 2 µg/mL against Staphylococcus aureus [3] and 2 µg/mL with Staphylococcus aureus [4].

Take `COc1cc2c(-c3ccc(-c4ccccc4)cc3)cc3c4ccc5c(c4c[n+](C)c3c2cc1OC)OCO5.[Cl-]`: the MIC with Enterococcus faecalis [1] is 8 µg/mL; against Enterococcus faecalis [2] it was 4 µg/mL; in the test on Staphylococcus aureus [3], 2 µg/mL; against Staphylococcus aureus [4], 2 µg/mL.

On to `COc1cc2c(ccc3c4ccc(OC)c(OC)c4c[n+](C)c23)c(C2=CCCCC2)c1OC.[Cl-]`, for which the MIC against Enterococcus faecalis [1] was found to be 32 µg/mL; in the test on Enterococcus faecalis [2], 16 µg/mL; in the test with Staphylococcus aureus [3], 2 µg/mL; in the test with Staphylococcus aureus [4], 4 µg/mL.

As to `Cc1onc(-c2ccccc2)c1C(=O)N[C@@H]1C(=O)N2[C@@H]1SC(C)(C)[C@@H]2C(=O)O` [OXACILLIN], the MIC in the test with Enterococcus faecalis [1] is above 64 µg/mL; with Enterococcus faecalis [2], 8 µg/mL (≈ 19.9 µM); against Staphylococcus aureus [3] it was 0.06 µg/mL (≈ 0.149 µM); against Staphylococcus aureus [4], above 64 µg/mL.

Regarding `C=Cc1c(OC)c(OC)cc2c1ccc1c3ccc(OC)c(OC)c3c[n+](C)c21.[Cl-]`, the MIC against Enterococcus faecalis [1] amounted to 8 µg/mL; with Enterococcus faecalis [2] it was 8 µg/mL; against Staphylococcus aureus [3], 1 µg/mL; against Staphylococcus aureus [4] it was 2 µg/mL.

Regarding `COc1cc2c(-c3ccccc3)cc3c4ccc(OC)c(OC)c4c[n+](C)c3c2cc1OC.[Cl-]`, the MIC against Enterococcus faecalis [1] is 16 µg/mL; against Enterococcus faecalis [2] it was 8 µg/mL; against Staphylococcus aureus [3], 1 µg/mL; in the test with Staphylococcus aureus [4], 2 µg/mL.

Consider `CCC[C@@H]1C[C@@H](C(=O)N[C@@H]([C@H]2O[C@H](SC)[C@H](O)[C@@H](O)[C@H]2O)[C@H](C)Cl)N(C)C1` [CLINDAMYCIN], for which the MIC against Enterococcus faecalis [1] was above 64 µg/mL; against Enterococcus faecalis [2], 2 µg/mL (≈ 4.71 µM); against Staphylococcus aureus [3] it was 0.03 µg/mL (≈ 0.0706 µM); against Staphylococcus aureus [4] it was above 64 µg/mL.

For `COc1cc2c(ccc3c4ccc(OC)c(OC)c4c[n+](C)c23)c(C2CC2)c1OC.[Cl-]`, the MIC against Enterococcus faecalis [1] worked out at 8 µg/mL; against Enterococcus faecalis [2], 8 µg/mL; in the test on Staphylococcus aureus [3] it was 1 µg/mL; in the test with Staphylococcus aureus [4], 2 µg/mL.

For `CN(C)[C@@H]1C(O)=C(C(N)=O)C(=O)[C@@]2(O)C(O)=C3C(=O)c4c(O)cccc4[C@@](C)(O)[C@H]3C[C@@H]12` [TETRACYCLINE], the MIC against Enterococcus faecalis [1] was above 64 µg/mL; with Enterococcus faecalis [2], 0.5 µg/mL (≈ 1.13 µM); with Staphylococcus aureus [3] it was 0.06 µg/mL (≈ 0.135 µM); in the test with Staphylococcus aureus [4], 64 µg/mL (≈ 144 µM).

With `CN[C@H](CC(C)C)C(=O)N[C@H]1C(=O)N[C@@H](CC(N)=O)C(=O)N[C@H]2C(=O)N[C@H]3C(=O)N[C@H](C(=O)N[C@H](C(=O)O)c4cc(O)cc(O)c4-c4cc3ccc4O)[C@H](O)c3ccc(c(Cl)c3)Oc3cc2cc(c3O[C@@H]2O[C@H](CO)[C@@H](O)[C@H](O)[C@H]2O[C@H]2C[C@](C)(N)[C@H](O)[C@H](C)O2)Oc2ccc(cc2Cl)[C@H]1O` [VANCOMYCIN], the values for the MIC against Enterococcus faecalis [1] and with Enterococcus faecalis [2] were above 64 µg/mL and 1 µg/mL (≈ 0.69 µM), respectively.

As for `COc1cc2c(ccc3c4ccc(OC)c(OC)c4c[n+](C)c23)c(C2CCCCC2)c1OC.[Cl-]`, the MIC was 8 µg/mL in the test with Enterococcus faecalis [1], 8 µg/mL with Enterococcus faecalis [2], 1 µg/mL against Staphylococcus aureus [3] and 2 µg/mL in the test on Staphylococcus aureus [4].

For the compound `COc1cc2c(ccc3c4ccc5c(c4c[n+](C)c23)OCO5)c(-c2ccc(-c3ccccc3)cc2)c1OC.[Cl-]`, the MIC against Enterococcus faecalis [1] turned out to be 8 µg/mL; in the test with Enterococcus faecalis [2], 8 µg/mL; with Staphylococcus aureus [3], 2 µg/mL; with Staphylococcus aureus [4] it was 2 µg/mL.

For `COc1cc2ccc3c4ccc(OC)c(OC)c4c[n+](C)c3c2cc1OC.[Cl-]`, the MIC against Enterococcus faecalis [1] was above 64 µg/mL; with Enterococcus faecalis [2] it was above 64 µg/mL; with Staphylococcus aureus [3] it was 32 µg/mL; against Staphylococcus aureus [4], 32 µg/mL.

Regarding `COc1cc2c(ccc3c4ccc(OC)c(OC)c4c[n+](C)c23)c(-c2ccoc2)c1OC.[Cl-]`, the MIC in the test with Enterococcus faecalis [1] was determined as 16 µg/mL; in the test on Enterococcus faecalis [2], 16 µg/mL; in the test on Staphylococcus aureus [3], 1 µg/mL; against Staphylococcus aureus [4] it was 1 µg/mL.

In the case of `COc1cc2ccc3c4ccc5c(c4c[n+](C)c3c2cc1OC)OCO5.[Cl-]`, the MIC against Enterococcus faecalis [1] was above 64 µg/mL; with Enterococcus faecalis [2], 64 µg/mL; in the test with Staphylococcus aureus [3], 32 µg/mL; against Staphylococcus aureus [4], 32 µg/mL.

As to `COc1cc2c(ccc3c4ccc(OC)c(OC)c4c[n+](C)c23)c(-c2cccnc2)c1OC.[Cl-]`, the MIC in the test with Enterococcus faecalis [1] came out at 32 µg/mL; against Enterococcus faecalis [2], 32 µg/mL; against Staphylococcus aureus [3], 8 µg/mL; in the test on Staphylococcus aureus [4], 32 µg/mL.

Take `COc1cc2c(ccc3c4ccc5c(c4c[n+](C)c23)OCO5)c(-c2ccccc2)c1OC.[Cl-]`: the MIC in the test on Enterococcus faecalis [1] came out at 8 µg/mL; with Enterococcus faecalis [2], 8 µg/mL; with Staphylococcus aureus [3] it was 1 µg/mL; against Staphylococcus aureus [4], 2 µg/mL.

One may read the MIC as the lowest concentration that inhibits growth of the organism.

For the origin of these results see ChEMBL document CHEMBL2203128, “Antibacterial activity of substituted 5-methylbenzo[c]phenanthridinium derivatives” (2012).
